Measurements from US8703812B2, “Protein synthesis required for long-term memory is induced by PKC activation on days preceding associative learning” (Blanchette Rockefeller Neurosciences Institute, priority 2005, dated 2014).

Tests used:
sAPP secretion = details: cited from earlier work
[1] = vitamin E 2000 IU/day; cited from earlier work
[2] = tested on: diacylglycerol-protein kinase C activation; details: aorta of diabetic rats; cultured rat smooth muscle cells, elevated glucose; cited from earlier work
calexcitin = test: Calexcitin immunostaining in B-photoreceptors; type: in vivo, Hermissenda
Procedure: Following experimental treatments and testing, animals were rapidly decapitated, the central nervous systems (CNS) removed and then fixed in 4% para-formaldehyde in 20 mM Tris-buffered (pH 8) natural seawater (NSW; 0.2 μm micropore-filtered). The CNSs were then embedded in polyester wax (20), sectioned (6 μm) and immunostained using a biotinylated secondary antibody coupled to avidin-bound microperoxidase (ABC method, Vector), Aminoethylcarbazole (AEC) was used as the chromogen. The primary polyclonal antibody (designated 25U2) was raised in rabbits from the full length calexcitin protein extracted from squid optic lobes. Gray-scale intensity measures were done from digital photomicrographs on circumscribed cytoplasmic areas of the B-photoreceptors minus the same background area (non-staining neuropile).

Hermissenda Crassicornis = test: Pavlovian conditioning of Hermissenda (retention of conditioned response); type: in vivo; details: for effect on bryostatin memory enhancement: 6 TE with bryostatin; for effect on long-term retention: anisomycin 1 μg/ml for four hours post-training (2 TE) after three-day bryostatin treatment
Procedure: Bryostatin exposure—Specimens of Hermissenda Crassicornis were maintained in artificial sea water (ASW) at 15° for three days in perforated 50-ml conical centrifuge tubes before starting experiments. Bryostatin, purified from the marine bryozoan Bugula neritina, was dissolved in EtOH and diluted to its final concentration in ASW. […] For selected experiments lactacysteine (10 μM) or anisomycin was added to the ASW.
Bryostatin effects on Hermissenda behavior and biochemistry were produced by adding the drug to the bathing medium within an 8 cm long, 1 cm diameter test tube housing each individual animal.
Pavlovian conditioning of Hermissenda involves repeated pairings of a neutral stimulus, light, with an unconditioned stimulus, orbital shaking. (See, Lederhendler et al. (24) and Epstein et al. (6)). A rotation/shaking stimulus excites the statocyst hair cells and thereby elicits an unconditioned response: a brisk contraction of the muscular undersurface called a foot, accompanied by adherence or “clinging” to the surface that supports the foot. Before conditioning, light elicits a weakly positive phototaxis accompanied by lengthening of the foot. After sufficient light-rotation pairings, light no longer elicits phototaxis, but instead elicits a new response (24): the “clinging” and foot shortening previously elicited only by the unconditional stimulus (FIG. 1). Thus, the meaning of the unconditioned stimulus, rotation or orbital shaking, has been transferred to the conditioned stimulus and is manifested by a light-elicited foot contraction—a negative change of foot length. This conditioned response to light can last for weeks, is not produced by randomized light and rotation, is stimulus-specific, and shares the other defining characteristics of mammalian Pavlovian Conditioning.
Pavlovian conditioning of Hermissenda has well-defined training parameters that produce progressively longer-lasting retention of the learned conditioned response. Two training events (2 TE) of paired light and orbital shaking (see “Methods”), for example, induce a learned conditioned response (light-elicited foot contraction or shortening) that persists without drug treatment for approximately 7 minutes. Four to six training events (4-6 TE) induce a conditioned response that persists up to several hours, but disappears approximately by 1 day after training. Nine TE produces long-term associative memory lasting many days and often up to two weeks.

[3] = tested on: Rat hippocampal H19-7/IGF-IR cells; test: Protein synthesis by [35S]Methionine incorporation; type: cell-based; details: PKC inhibitor Ro-32 also present
Procedure: FIG. 17 depicts the effects of bryostatin on protein synthesis. Rat IGF-IR cells were incubated for 30 minutes with 0.28 nM bryostatin for incubation times ranging from 1 to 79 hours. [^35S]Methionine (9.1 μCi) was then added to the medium followed by analysis of radiolabel.
Rat hippocampal H19-7/IGF-IR cells (ATCC) were plated onto poly-L-lysine coated plates and grown at 35° in DMEM/10% FCS for several days until approx. 50% coverage was obtained. The cells were then induced to differentiate into a neuronal phenotype by replacing the medium with 5 ml N2 medium containing 10 ng/ml basic fibroblast growth factor and grown in T-25 flasks at 39° C. (26). Various concentrations of bryostatin (0.01-1.0 nM) were then added in 10 μl aqueous solution. After a specified interval, the medium was removed and the cells were washed with PBS, removed by gentle scraping, and collected by centrifugation at 1000 rpm for 5 min.
In fact, we found here that a single 30-minute exposure to 0.28 nM bryostatin increased overall protein synthesis (FIG. 17), measured by incorporation of ^35-S Methionine in the last ½ hour before collecting the neurons, by 20% within 24 h, increasing to 60% by 79 hours after the bryostatin exposure.

PKC-α = details: 20 μM-5 QμM Lactacysteine; cited from earlier work
PKC = test: Protein kinase C assay (histone phosphorylation) in Hermissenda nervous systems; type: in vivo; details: anisomycin (1.0 ng/ml) with each bryostatin (0.25 ng/ml) exposure on three successive days
Procedure: Bryostatin exposure—Specimens of Hermissenda Crassicornis were maintained in artificial sea water (ASW) at 15° for three days in perforated 50-ml conical centrifuge tubes before starting experiments. Bryostatin, purified from the marine bryozoan Bugula neritina, was dissolved in EtOH and diluted to its final concentration in ASW. Animals were incubated with bryostatin in ASW for 4 hr, then rinsed with normal ASW. For selected experiments lactacysteine (10 μM) or anisomycin was added to the ASW.
Cells were homogenized by sonication (5 sec, 25 W) in 100 μl of 10 mM Tris-HCl pH 7.4 buffer containing 1 mM EGTA, 1 mM PMSF, and 50 mM NaF. Homogenate was transferred to a polyallomer centrifuge tube and was centrifuged at 100,000×g for 10 min at 4°. The supernatant was removed and immediately frozen on dry ice. The particulate fraction was resuspended by sonication in 100 μl of the same buffer and stored at −80°. To measure PKC, 10 μl of cytosol or particulate fraction was incubated for 15 min at 37° in the presence of 10 μM histones, 4.89 mM CaCl2, 1.2 μg/μl phosphatidyl-L-serine, 0.18 μg/μl 1,2-dioctanoyl-sn-glycerol, 10 mM MgCl2, 20 mM HEPES (pH 7.4), 0-8 mM EDTA, 4 mM EGTA, 4% glycerol, 8 μg/ml aprotinin, 8 μg/ml leupeptin, and 2 mM benzamidine. 0.5 μCi [γ^32P]ATP was added and ^32P-phosphoprotein formation was measured by adsorption onto phosphocellulose as described previously (25). This assay was used with slight adjustments for either Hermissenda nervous system homogenates or cultured mammalian neuron homogenates
Intact Hermissenda were exposed for 4 hour intervals to bryostatin (0.28 nM) on successive days under conditions described (“Behavioral Pharmacology”). Histone phosphorylation (See “Methods”) in isolated circumesophageal nervous systems was then measured in the cytosol fraction. […] (FIG. 12, 13). […] After an initial activation (via translocation), this bryostatin effect is most likely due to increased synthesis of PKC, consistent with the increased levels of calexcitin induced by bryostatin, but not directly correlated with repeated bryostatin exposure.

For benzolactam, the sAPP secretion (sAPP secretion; benzolactam-treated cells) is listed as “enhance sAPP secretion over basal levels” and the “concentration giving significant increases of sAPP secretion” value (sAPP secretion; control fibroblasts) is listed as 10 µM.
For vitamin E, the clinical outcome [1] is listed as “reduced mortality and morbidity, but did not enhance cognitive abilities” and the “diacylglycerol-protein kinase C activation” value [2] is listed as “normalize diacylglycerol-protein kinase C activation”.
With CN(C)C[C@H]1CCn2c(c(C3=C(c4cn(C)c5ccccc45)C(=O)NC3=O)c3ccccc32)C1 [Ro-32] the “effect on learning-specific calexcitin increases in Type B cell” value (calexcitin; Ro-32) was “prevented both learning and learning-specific calexcitin increases”, the “effect on bryostatin memory enhancement” value (Hermissenda Crassicornis) was “blocked” and the “effect on 6 TE plus bryostatin conditioning” value (Hermissenda Crassicornis; Ro-32 applied pre-training (during dark adaptation)) was “blocked”. For the same compound, the “effect on memory consolidation” value (Hermissenda Crassicornis; Ro-32 during the training plus bryostatin) was “did prevent memory consolidation”, the “effect on long-term memory induction” value (Hermissenda Crassicornis; Ro-32 immediately after bryostatin plus training) was “did not prevent long-term memory induction” and the “effect on bryostatin-induced increase of protein synthesis” value [3] was “partially blocked”. The “effect on bryostatin-induced increase of protein synthesis” value ([3]; listed as Ro-32-0432) was “increasing significantly less”.
In the case of CN[C@@H]1C[C@H]2O[C@@](C)([C@@H]1OC)n1c3ccccc3c3c4c(c5c6ccccc6n2c5c31)C(=O)NC4 [staurosporine], the “effect on benzolactam-induced sAPP secretion” value (sAPP secretion; control and AD fibroblasts) is given as “eliminated the effects of benzolactam”.
In the case of CC(=O)N[C@@H](CSC(=O)[C@]1([C@@H](O)C(C)C)NC(=O)[C@H](C)[C@@H]1O)C(=O)O [Lactacysteine], the “acquisition or retention of behavioral training” value (Hermissenda Crassicornis; lactacysteine only 10 μM 4 h, 2-paired TEs 24 hrs later) is given as “no acquisition or retention of behavioral training”, the “duration of memory after single bryostatin exposure followed by 2 TE” value (Hermissenda Crassicornis; with lactacysteine) is given as “many days” and the “degradation of PKC-α” value (PKC-α) is given as “largely prevented”.
In the case of COc1ccc(C[C@H]2NC[C@H](O)[C@H]2OC(C)=O)cc1 [anisomycin], the “effect on PKC activity, cytosolic and membrane fractions” value (PKC) was “markedly reduced the PKC activity”, the “effect on calexcitin level” value (calexcitin; anisomycin immediately after 2-paired TEs following 3 days of 4-hr bryostatin) was “did not reduce this calexcitin level” and the “effect on bryostatin memory enhancement” value (Hermissenda Crassicornis) was “blocked”. For the same compound, the “effect on memory retention produced by 9 TE” value (Hermissenda Crassicornis; 4 hour anisomycin treatment, no bryostatin) was “eliminated all memory retention”, the “effect on long-term retention” value (Hermissenda Crassicornis) was “did not prevent memory retention” and the “effect on long-term retention” value (Hermissenda Crassicornis; listed as Anisomycin) was “did not prevent long-term retention”. The “effect on retention produced by single 4-hour bryostatin plus 2 TE” value (Hermissenda Crassicornis; anisomycin 1.0 μg/ml immediately post-training, tested after 4 h) was “showed no CR”, the “effect on memory formation” value (Hermissenda Crassicornis; anisomycin after training with and without bryostatin) was “completely blocked memory formation” and the “effect on long-term memory” value (Hermissenda Crassicornis; anisomycin during training with and without bryostatin) was “did not prevent long-term memory”. For the same compound, the “effect on long-term memory” value (Hermissenda Crassicornis; anisomycin with each of three successive daily 4 hour bryostatin exposures, 2 TE one day after) was “long-term memory was eliminated”.
